Assay results reported in patent US20240009170A1, “INHIBITION OF GLYCOGEN SYNTHASE KINASE-3 (GSK-3)” (Brown University, priority 2020, published 2024).
Where two headings read alike, the source gives them in different places.

Tests used:
HCT-116 = assay: Flow cytometric analysis of cell surface markers, HCT-116; format: cell-based, Human; conditions: post-treatment
Method: FIG. 12 is a set of bar graphs showing flow cytometric analyses of cell surface markers of tumor and immune cells treated with 9-ING-41 in vitro. FIG. 12(A) HCT-116, FIG. 12(B) HT-29, FIG. 12(C) TALL-104, and FIG. 12(D) NK-92 cells were treated with indicated concentrations of 9-ING-41 for forty-eight hours, stained for indicated cell surface marker expression, and analyzed with a BD LSRII. Statistical significance was determined using two-tailed unpaired T tests.
To further understand the differential 9-ING-41-mediated impacts on protein expression, the inventors treated tumor and immune cells in vitro with 9-ING-41, then performed a flow cytometric analysis for expression of cell surface markers. […] A similar trend occurred in HT-29 cells, although not statistically significant. […] FIG. 10(C). […] FIG. 10(D).

[1] = in vivo; cited from earlier work
TALL-104 T cells = assay: Western blot analysis, TALL-104; format: cell-based, Human
Method: (§1) Western blot analysis. Cells were plated in a 6-well plate and incubated overnight before the spent media was replaced with drugged media. Drug treatment lasted for indicated durations. Protein was extracted using radioimmunoprecipitation (RIPA) assay buffer (Cat #R0278, Sigma-Aldrich, St. Louis, MO) containing cOmplete™ Mini, EDTA-free Protease Inhibitor Cocktail (Cat #4693159001, Roche, Basel, Switzerland). Denaturing sample buffer was added, samples were boiled at 95 degrees for 10 minutes. An equal amount of protein lysate was electrophoresed through NuPAGE™ 4 to 12%, Bis-Tris, 1.5 mm, Mini Protein Gels (Invitrogen, Waltham, MA, USA) then transferred to PVDF membranes. The PVDF membrane was blocked with 5% non-fat milk (Sigma-Aldrich, St. Louis, MO, USA) in 1× TTBS. Primary antibodies were incubated with the transferred PVDF membrane in blocking buffer at 4° C. overnight. Secondary antibodies used included goat anti-rabbit IgG (H+L) secondary antibody, HRP (Cat #31460, Invitrogen, Waltham, MA, USA) and goat anti-mouse IgG (H+L) secondary antibody, HRP (Cat #31430, Invitrogen, Waltham, MA, USA). Signal was detected using a Syngene Imaging System.
(§2) 9-ING-41 treatment decreases survival factor expression while increasing PD-L1 levels in colorectal cancer cell lines. To elucidate the mechanism behind the differential effects of 9-ING-41 on either colorectal cancer or immune cells in co-culture and cytokine profiling assays, the inventors performed Western blot analyses on tumor and immune cells treated with 9-ING-41 over a 72-hour time course.
(§3) Treating cells from colorectal cancer cell lines with 1 μM 9-ING-41 decreases Surivin, NF-κB p65, and IκBα while increasing PD-L1 levels in, 9-ING-41 treatment of immune cells increases NIK. Western blot analysis of HCT-116 and HT-29 colorectal cancer cells for expression of indicated proteins after increasing durations of 9-ING-41 treatment (0-72 hours). Western blot analysis of TALL-104 T cells for expression of indicated proteins after increasing durations of 9-ING-41 treatment (0-72 hours). […]

[2] = system: HCT-116 colorectal cancer cells; assay: Western blot analysis, HCT-116; format: cell-based, Human
Method: as §1, §2
Treating cells from colorectal cancer cell lines with 1 μM 9-ING-41 decreases Surivin, NF-κB p65, and IκBα while increasing PD-L1 levels in, 9-ING-41 treatment of immune cells increases NIK. Western blot analysis of HCT-116 and HT-29 colorectal cancer cells for expression of indicated proteins after increasing durations of 9-ING-41 treatment (0-72 hours). Western blot analysis of TALL-104 T cells for expression of indicated proteins after increasing durations of 9-ING-41 treatment (0-72 hours). Analysis of Mcl-1 expression in HCT-116 colorectal cancer cells and NK-92 natural killer cells after increasing durations of 9-ING-41 treatment.

SW480 tumor cells = assay: Co-culture of NK-92 natural killer cells and SW480 tumor cells; format: cell-based, Human
Method: Immune cell co-culture experiments. Co-culture experiments were conducted with GFP+ SW480 or HCT-116 colorectal cancer cells and either NK-92 natural killer cells or TALL-104 T cells in a 48-well plate, in the presence or absence of 9-ING-41. HCT-116 cells were labeled using CellTracker™ Green CMFDA (5-chloromethylfluorescein diacetate), immune cells (NK-92, TALL-104) were labeled using CellTracker™ Blue CMAC Dye (7-amino-4-chloromethylcoumarin), and ethidium homodimer-1 (EthD-1) was used as a marker of cell death (Invitrogen, Thermo Fisher Scientific, Waltham, MA, USA).
(§4) Co-culture experiments were conducted with GFP+ SW480 colorectal cancer cells and either NK-92 natural killer cells or TALL-104 T cells at various effector/target ratios in a 48-well plate, in the presence or absence of 9-ING-41.
The inventors co-cultured green fluorescent SW480 tumor cells with NK-92 natural killer cells at a 1:1 effector target cell ratio (E:T) for twenty-four hours and imaged by fluorescence microscopy. Ethidium homodimer was used to visualize dead cells. The inventors obtained photographic images of the co-cultured cells.
An average baseline amount of NK-92-mediated tumor cell killing of about 39% occurred in the absence of drug.

pulmonary fibrosis = conditions: cited from earlier work
colorectal cancer cells = assay: Co-culture with pre-treatment of effector or target cell population; format: cell-based, Human; conditions: target cells pre-treated before co-culture
Method: as §4, with “9-ING-41. Follow-up experiments compared the effect of pre-treating either the effector or the target cell population with 9-ING-41 before the co-culture experiment was started.” for “9-ING-41.”

[3] = system: HT-29 colorectal cancer cells; assay: Western blot analysis, HT-29; format: cell-based, Human
Method: as §1, §2, §3

[4] = system: prostate cancer cell lines; conditions: cited from earlier work
[5] = Body weight, complete blood count and serum chemistry in the CT-26 BALB/c model; parameters: species or system BALB/c mice; conditions: mouse, in vivo
Source text: As can be expected in mice with significant tumor burdens, mice across treatment groups had decreased albumin levels and evidence of mild marrow hypoplasia resulting in mild anemia, and lower white blood cell and platelet counts. This effect was independent of treatment group and likely related to tumor burden at the time of sacrifice.

[6] = system: NK-92 natural killer cells; assay: Western blot analysis of Mcl-1, NK-92; format: cell-based, Human; conditions: through the 48-hour endpoint
Method: as §1
Treating cells from colorectal cancer cell lines with 1 μM 9-ING-41 decreases Surivin, NF-κB p65, and IκBα while increasing PD-L1 levels in, 9-ING-41 treatment of immune cells increases NIK. […]

[7] = as treatment duration increased

Cn1cc(C2=C(c3coc4ccc(F)cc34)C(=O)NC2=O)c2cc3c(cc21)OCO3 [9-ING-41]
DR5 expression (HCT-116): significant decreased
ICAM-1 expression (HCT-116): significant increase
HLA-E and PD-L1 surface expression (HCT-116; 48 hours): statistically significant increase
blood brain barrier [1]: crosses the blood brain barrier
PD-1 expression (TALL-104 T cells; 0-72 hours): decreased
Survivin and NIK (TALL-104 T cells; 0-72 hours): surprising increases
NF-KB, IKK β, IKBα, pIKBα, and Bcl-2 (TALL-104 T cells; [7]): no significant changes
IKKR ([2]; 1 μM, 0-72 hours): No changes
Survivin, NF-κB-inducing kinase (NIK), NF-κB, IKBα, pIKBα, and Bcl-2 ([2]; 1 μM, by the 72-hour timepoint): decreases
cPARP ([2]; 1 μM, until the 48-hour timepoint): little to no cPARP
PD-L1 expression ([2]; as the treatment duration increased): increases
Mcl-1 protein expression ([2]; by the 24-hour timepoint): marked decreases
Natural Killer activity (SW480 tumor cells; IC50 dose, 1:1 E:T, 24 hours): stimulation of Natural Killer activity
natural killer (NK-92) cell killing of colorectal cancer cells (SW480 tumor cells; compared to controls without drug treatment): significant increase
pulmonary fibrosis and pulmonary function (pulmonary fibrosis; models of TGF-β): reduced pulmonary fibrosis and improved pulmonary function
pulmonary fibrosis and pulmonary function (pulmonary fibrosis; models of bleomycin pulmonary fibrosis): reduced pulmonary fibrosis and improved pulmonary function
cell-killing after pre-treatment of the target tumor cells (colorectal cancer cells): bolstered cell-killing
IKKβ and Nik ([3]; 0-72 hours): did not change
PD-L1 [3, 7]: increased
Survivin, NF-KB, IKBα, pIKBα, and Bcl-2 ([3]; by the 72-hour timepoint): decreased
expression of PD-L1 [4]: regulated the expression of PD-L1
electrolyte perturbations [5]: free of significant electrolyte perturbations
renal function (blood urea nitrogen and creatinine) [5]: maintained normal renal function
Mcl-1 protein expression [6]: did not observe a significant decrease
